Data on 23 molecules can be found in US8236956B2, “Cyclopamine analogues and methods of use thereof” (Infinity Pharmaceuticals, Inc., priority 2004, dated 2012).

Read-outs that look alike come from different tables or passages of the source.

The test system of one experiment is Hedgehog pathway. Kind of experiment: C3H10T1/2 differentiation assay (alkaline phosphatase), inhibition of the Hedgehog pathway in cell culture. The format is cell-based. The settings on record: Mus musculus. The source says: Hedgehog pathway specific cancer cell killing effects may be ascertained using the following assay. C3H10T1/2 cells differentiate into osteoblasts when contacted with the sonic hedgehog peptide (Shh-N). Upon differentiation; these osteoblasts produce high levels of alkaline phosphatase (AP) which can be measured in an enzymatic assay (Nakamura et al., 1997 BBRC 237: 465). Compounds that block the differentiation of C3H10T1/2 into osteoblasts (a Shh dependent event) can therefore be identified by a reduction in AP production (van der Horst et al., 2003 Bone 33: 899). The assay details are described below. The results approximate (EC50 for inhibition) of the differentiation assay is shown below in Table 1.
Mouse embryonic mesoderm fibroblasts C3H10T1/2 cells (obtained from ATCC) were cultured in Basal MEM Media (Gibco/Invitrogen) supplemented with 10% heat inactivated FBS (Hyclone), 50 units/ml penicillin and 50 ug/ml streptomycin (Gibco/Invitrogen) at 37 C with 5% CO2 in air atmosphere.
C3H10T1/2 cells were plated in 96 wells with a density of 8×10^3 cells/well. Cells were grown to confluence (72 hrs). After sonic Hedgehog (250 ng/ml), (R&D Systems) and/or compound treatment, the cells were lysed in 110 µl of lysis buffer (50 mM Tris pH 7.4, 0.1% TritonX100), plates were sonicated and lysates spun through 0.2 um PVDF plates (Corning). 40 ul of lysates was assayed for AP activity in alkaline buffer solution (Sigma) containing 1 mg/ml p-Nitrophenyl Phosphate. After incubating for 30 min at 37 C, the plates were read on an Envision plate reader at 405 nm. Total protein was quantified with a BCA protein assay kit from Pierce according to manufacturer's instructions. AP activity was normalized against total protein.

Another experiment relates to psoriasis lesions. The settings on record: topical application; Tas et al., 2004 Dermatology 209: 126-131; cited from earlier work.
[1] abbreviates: C3H 10T1/2, C3H10T1/2 cells, sonic Hedgehog 250 ng/ml, AP activity normalized against total protein, approximate, read-out: Differentiation Assay EC50 (Approximate EC50 for Inhibition).
[2] abbreviates: C3H 10T1/2, read-out: Differentiation Assay EC50 (Approximate EC50 for Inhibition).

Regarding `CC1=C2C[C@H]3[C@@H](CCC4=CC(=O)CC[C@@]43C)[C@@H]2CC[C@@]2(C1)O[C@@H]1C[C@H](C)CN(CC(=O)NCCCc3ccccc3)[C@H]1[C@H]2C` [Compound 47], the EC50 in the experiment with Hedgehog pathway (setting [1]) was in the range of 200 to 500 nM.

In the case of `CC1=C2C[C@H]3[C@@H](CC=C4C[C@@H](O)CC[C@@]43C)[C@@H]2CC[C@@]2(C1)O[C@@H]1C[C@H](C)CN(CCNC(=O)CNC(=O)CCc3ccccc3)[C@H]1[C@H]2C` [Compound 30], the half-maximal effective concentration (EC50) in the experiment on Hedgehog pathway (setting [2]) is below 200 nM.

Consider `CC1=C2C[C@H]3[C@@H](CCC4=CC(=O)CC[C@@]43C)[C@@H]2CC[C@@]2(C1)O[C@@H]1C[C@H](C)CN(CCNC(=O)CCc3ccccc3)[C@H]1[C@H]2C` [Compound 21], for which the EC50 in the experiment with Hedgehog pathway (setting [2]) was below 200 nM.

With `CC1=C2C[C@H]3[C@@H](CC=C4C[C@@H](O)CC[C@@]43C)[C@@H]2CC[C@@]2(C1)O[C@@H]1C[C@H](C)CN[C@H]1[C@H]2C` [Compound 19], the concentration for a half-maximal effect (EC50) in the experiment on Hedgehog pathway (setting [2]) was 200 to 500 nM.

Turning to `CC1=C2C[C@H]3[C@@H](CCC4=CC(=O)CC[C@@]43C)[C@@H]2CC[C@@]2(C1)O[C@@H]1C[C@H](C)CN(CCN(C)C)[C@H]1[C@H]2C` [Compound 45], the half-maximal effective concentration (EC50) in the experiment on Hedgehog pathway (setting [2]) is 200 to 500 nM.

For the molecule `CC1=C2C[C@H]3[C@@H](CCC4=CC(=O)CC[C@@]43C)[C@@H]2CC[C@@]2(C1)O[C@@H]1C[C@H](C)CN(CCNS(=O)(=O)CCc3ccccc3)[C@H]1[C@H]2C` [Compound 24], in the experiment on Hedgehog pathway (setting [1]), the concentration giving a half-maximal response (EC50) was 200 to 500 nM.

`CC1=C2C[C@H]3[C@@H](CCC4=CC(=O)CC[C@@]43C)[C@@H]2CC[C@@]2(C1)O[C@@H]1C[C@H](C)CN(Cc3ccc(Oc4ccccc4)cc3)[C@H]1[C@H]2C` [Compound 37]: the EC50 in the experiment on Hedgehog pathway (setting [1]) was above 500 nM.

As for `COCCOCCN1C[C@@H](C)C[C@H]2O[C@]3(CC[C@@H]4C(=C(C)C3)C[C@H]3[C@H]4CCC4=CC(=O)CC[C@@]43C)[C@H](C)[C@@H]21` [Compound 41], in the experiment with Hedgehog pathway (setting [1]), the concentration for a half-maximal effect (EC50) was below 200 nM.

For the molecule `C[C@@H]1CN[C@H]2[C@@H](C)[C@@]3(CC[C@H]4[C@@H]5CCC6=CC(=O)CC[C@]6(C)[C@H]5CC45CC53C)O[C@@H]2C1` (some centres unmarked) [Compound 11], in the experiment with Hedgehog pathway (setting [2]), the concentration for a half-maximal effect (EC50) was above 500 nM.

As for `CC1=C2C[C@H]3[C@@H](CC=C4C[C@@H](O)CC[C@@]43C)[C@@H]2CC[C@]12O[C@@H]1C[C@H](C)CN[C@H]1[C@H]2C` [cyclopamine], the “effect on psoriasis lesions” value in the experiment with psoriasis lesions was “full or partial regression of the lesion”.

Take `C[C@H]1C[C@H]2O[C@]3(CC[C@H]4[C@@H]5CC=C6C[C@@H](O)CC[C@]6(C)[C@H]5CC45CC53C)[C@H](C)[C@@H]2N(CCNC(=O)CCCCCNC(=O)CCc2ccccc2)C1` (some centres unmarked) [Compound 4]: the 50% effective concentration (EC50) with Hedgehog pathway (setting [1]) is below 200 nM.

Turning to `CC1=C2C[C@H]3[C@@H](CC=C4C[C@@H](O)CC[C@@]43C)[C@@H]2CC[C@@]2(C1)O[C@@H]1C[C@H](C)CN(C)[C@H]1[C@H]2C` [Compound 20], the 50% effective concentration (EC50) in the experiment with Hedgehog pathway (setting [2]) is above 500 nM.

As for `CC1=C2C[C@H]3C(CC=C4C[C@@H](O)CC[C@@]43C)[C@@H]2CC[C@@]2(C1)O[C@@H]1C[C@H](C)CN(CCCl)[C@H]1[C@H]2C` (some centres unmarked) [Compound 27], the concentration giving a half-maximal response (EC50) with Hedgehog pathway (setting [1]) is above 500 nM.

With `CC1=C2C[C@H]3[C@@H](CCC4=CC(=O)CC[C@@]43C)[C@@H]2CC[C@@]2(C1)O[C@@H]1C[C@H](C)CN(Cc3ccccc3)[C@H]1[C@H]2C` [Compound 35], in the experiment with Hedgehog pathway (setting [1]), the 50% effective concentration (EC50) was below 200 nM.

Regarding `COCCOCCOCCOCCN1C[C@@H](C)C[C@H]2O[C@]3(CC[C@@H]4C(=C(C)C3)C[C@H]3[C@H]4CCC4=CC(=O)CC[C@@]43C)[C@H](C)[C@@H]21` [Compound 31], the concentration for a half-maximal effect (EC50) in the experiment with Hedgehog pathway (setting [1]) was below 200 nM.

Consider `COCCOCCOCCN1C[C@@H](C)C[C@H]2O[C@]3(CC[C@@H]4C(=C(C)C3)C[C@H]3[C@H]4CCC4=CC(=O)CC[C@@]43C)[C@H](C)[C@@H]21` [Compound 33], for which, in the experiment with Hedgehog pathway (setting [1]), the 50% effective concentration (EC50) was below 200 nM.

As to `CC1=C2C[C@H]3[C@@H](CCC4=CC(=O)CC[C@@]43C)[C@@H]2CC[C@@]2(C1)O[C@@H]1C[C@H](C)CN[C@H]1[C@H]2C` [Compound 18], the EC50 with Hedgehog pathway (setting [1]) is below 200 nM.

Consider `CC1=C2C[C@H]3C(CCC4=CC(=O)CC[C@@]43C)[C@@H]2CC[C@@]2(C1)O[C@@H]1C[C@H](C)CN(CCCl)[C@H]1[C@H]2C` (some centres unmarked) [Compound 28], for which the 50% effective concentration (EC50) in the experiment with Hedgehog pathway (setting [1]) was above 500 nM.

For the molecule `C[C@H]1C[C@H]2O[C@]3(CC[C@H]4[C@@H]5CCC6=CC(=O)CC[C@]6(C)[C@H]5CC45CC53C)[C@H](C)[C@@H]2N(CCNC(=O)CCCCCNC(=O)CCc2ccccc2)C1` (some centres unmarked) [Compound 17], the half-maximal effective concentration (EC50) with Hedgehog pathway (setting [1]) was below 200 nM.

Take `CC1=C2C[C@H]3[C@@H](CCC4=CC(=O)CC[C@@]43C)[C@@H]2CC[C@@]2(C1)O[C@@H]1C[C@H](C)CN(CCOCCOCc3ccccc3)[C@H]1[C@H]2C` [Compound 43]: the EC50 in the experiment on Hedgehog pathway (setting [1]) fell in the range of 200 to 500 nM.

Take `C[C@@H]1CN[C@H]2[C@@H](C)[C@@]3(CC[C@H]4[C@@H]5CC=C6C[C@@H](O)CC[C@]6(C)[C@H]5CC45CC53C)O[C@@H]2C1` (some centres unmarked) [Compound 1]: the 50% effective concentration (EC50) in the experiment on Hedgehog pathway (setting [2]) was above 500 nM.

As to `COCCOCCN1C[C@@H](C)C[C@H]2O[C@]3(CC[C@@H]4C(=C(C)C3)C[C@H]3C4CCC4=CC(=O)CC[C@@]43C)[C@H](C)[C@@H]21` (some centres unmarked) [Compound 29], the 50% effective concentration (EC50) with Hedgehog pathway (setting [1]) is below 200 nM.

For `CC1=C2C[C@H]3[C@@H](CCC4=CC(=O)CC[C@@]43C)[C@@H]2CC[C@@]2(C1)O[C@@H]1C[C@H](C)CN(CCO)[C@H]1[C@H]2C` [Compound 39], in the experiment on Hedgehog pathway (setting [2]), the concentration for a half-maximal effect (EC50) was above 500 nM.
